Experimental data published in ChEMBL document CHEMBL5634087, “Novel 5-aminopyrazoles endowed with anti-angiogenetic properties: Design, synthesis and biological evaluation” (Eur J Med Chem, 2023).
Calls of active or inactive are those of the source. No cut-off for these calls is given here.

Assays:
[1] = tested on: HFF; experiment: Antiangiogenic activity in confluent HFF cells assessed as inhibition of cell migration at 20 uM incubated for 24 to 48 hrs by Hoechst 33342 staining based wound healing assay; format: functional; conditions: Homo sapiens, time 24-48 hrs
[2] = tested on: MDA-MB-231; experiment: Antiproliferative activity against human MDA-MB-231 cells assessed as growth rate at 10 uM incubated for 48 hrs by MTT assay relative to control; format: functional; conditions: read-out: Activity
[3] = tested on: SK-BR-3; experiment: Antiproliferative activity against human SK-BR-3 cells assessed as growth rate at 10 uM incubated for 48 hrs by MTT assay relative to control; format: functional; conditions: read-out: Activity
[4] = tested on: HepG2; experiment: Antiproliferative activity against human HepG2 cells assessed as growth rate at 10 uM incubated for 48 hrs by MTT assay relative to control; format: functional; conditions: read-out: Activity
[5] = tested on: MCF7; experiment: Antiproliferative activity against human MCF7 cells assessed as growth rate at 10 uM incubated for 48 hrs by MTT assay relative to control; format: functional; conditions: read-out: Activity
[6] = target: RAC-alpha serine/threonine-protein kinase (Homo sapiens) (UniProt P31749); experiment: Inhibition of AKT phosphorylation in serum starved bFGF stimulated HFF cells at 20 uM preincubated for 10 mins followed by bFGF addition and measured after 20 mins by Western blotting analysis; format: cell-based; conditions: time 30.0 min
[7] = tested on: SK-MEL-28; experiment: Antiproliferative activity against human SK-MEL-28 cells assessed as growth rate at 10 uM incubated for 48 hrs by MTT assay relative to control; format: functional; conditions: read-out: Activity
[8] = tested on: HUVEC; experiment: Antiangiogenic activity in confluent VEGF stimulated HUVEC cells assessed as inhibition of cell migration at 20 uM incubated for 24 to 48 hrs by Hoechst 33342 staining based wound healing assay; format: functional; conditions: Homo sapiens, time 24-48 hrs
[9] = target: RAC-alpha serine/threonine-protein kinase (Homo sapiens) (UniProt P31749); experiment: Inhibition of AKT phosphorylation in serum starved VEGF stimulated HUVEC cells at 20 uM preincubated for 10 mins followed by VEGF addition and measured after 20 mins by Western blotting analysis relative to control; format: cell-based; conditions: time 30.0 min
[10] = tested on: A549; experiment: Antiproliferative activity against human A549 cells assessed as growth rate at 10 uM incubated for 48 hrs by MTT assay relative to control; format: functional; conditions: read-out: Activity
[11] = target: Mitogen-activated protein kinase; ERK1/ERK2 (Homo sapiens) (UniProt P27361+P28482); experiment: Inhibition of ERK1/2 phosphorylation in serum starved bFGF stimulated HFF cells assessed as residual phosphorylated ERK1/2 level at 20 uM preincubated for 10 mins followed by bFGF addition and measured after 20 mins by Western blotting analysis relative to control; format: cell-based; conditions: time 30.0 min
[12] = tested on: HeLa; experiment: Antiproliferative activity against human HeLa cells assessed as growth rate at 10 uM incubated for 48 hrs by MTT assay relative to control; format: functional; conditions: read-out: Activity
[13] = tested on: SK-OV-3; experiment: Antiproliferative activity against human SK-OV-3 cells assessed as growth rate at 10 uM incubated for 48 hrs by MTT assay relative to control; format: functional; conditions: read-out: Activity
[14] = Cytotoxicity against human GM06114 cells assessed as growth rate at 10 uM incubated for 48 hrs by MTT assay relative to control; format: toxicity, cell-based; conditions: gm06114, 48 h
[15] = tested on: HFF; experiment: Antiangiogenic activity in confluent HFF cells assessed as inhibition of cell migration at 20 uM incubated for 24 to 48 hrs by Hoechst 33342 staining based wound healing assay relative to control; format: functional, Homo sapiens; set-up: scale not given: the % may be the effect or the level left; conditions: time 24-48 hrs
[16] = tested on: HFF; experiment: Antiangiogenic activity in confluent HFF cells assessed as relative migration rate at 20 uM incubated for 24 hrs by Hoechst 33342 staining based wound healing assay relative to control; format: functional, Homo sapiens
[17] = target: RAC-alpha serine/threonine-protein kinase (Homo sapiens) (UniProt P31749); experiment: Inhibition of AKT phosphorylation in serum starved bFGF stimulated HFF cells assessed as residual activity at 20 uM preincubated for 10 mins followed by bFGF addition and measured after 20 mins by Western blotting analysis relative to control; format: cell-based; conditions: time 30.0 min
[18] = tested on: HFF; experiment: Antiangiogenic activity in confluent HFF cells assessed as relative migration rate at 20 uM incubated for 48 hrs by Hoechst 33342 staining based wound healing assay relative to control; format: functional, Homo sapiens
[19] = tested on: HUVEC; experiment: Antiangiogenic activity in confluent VEGF stimulated HUVEC cells assessed as relative cell migration rate at 20 uM incubated for 24 hrs by Hoechst 33342 staining based wound healing assay relative to control; format: functional, Homo sapiens

Chain of Mitogen-activated protein kinase; ERK1/ERK2 (Homo sapiens) (P27361 whole entry, looked up): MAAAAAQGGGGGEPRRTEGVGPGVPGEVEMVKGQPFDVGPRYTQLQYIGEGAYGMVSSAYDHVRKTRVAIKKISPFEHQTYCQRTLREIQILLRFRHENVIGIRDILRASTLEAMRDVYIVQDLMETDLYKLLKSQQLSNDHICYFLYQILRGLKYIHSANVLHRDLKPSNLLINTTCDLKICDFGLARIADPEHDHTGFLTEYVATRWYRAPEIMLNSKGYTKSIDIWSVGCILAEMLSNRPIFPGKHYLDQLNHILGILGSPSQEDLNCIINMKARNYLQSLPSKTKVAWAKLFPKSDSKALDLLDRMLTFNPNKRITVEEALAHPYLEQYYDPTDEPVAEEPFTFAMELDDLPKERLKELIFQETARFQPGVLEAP
Chain of Mitogen-activated protein kinase; ERK1/ERK2 (Homo sapiens) (P28482 whole entry, looked up): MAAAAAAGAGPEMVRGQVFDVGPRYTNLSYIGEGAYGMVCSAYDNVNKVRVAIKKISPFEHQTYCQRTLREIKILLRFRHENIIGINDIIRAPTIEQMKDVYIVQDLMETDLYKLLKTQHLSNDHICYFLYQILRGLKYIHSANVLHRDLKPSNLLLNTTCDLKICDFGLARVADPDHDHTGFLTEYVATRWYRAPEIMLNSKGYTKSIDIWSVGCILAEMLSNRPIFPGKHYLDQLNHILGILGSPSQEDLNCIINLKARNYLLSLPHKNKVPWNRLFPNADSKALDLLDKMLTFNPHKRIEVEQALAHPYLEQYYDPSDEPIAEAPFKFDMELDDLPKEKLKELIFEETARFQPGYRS
Chain of RAC-alpha serine/threonine-protein kinase (Homo sapiens) (P31749 whole entry): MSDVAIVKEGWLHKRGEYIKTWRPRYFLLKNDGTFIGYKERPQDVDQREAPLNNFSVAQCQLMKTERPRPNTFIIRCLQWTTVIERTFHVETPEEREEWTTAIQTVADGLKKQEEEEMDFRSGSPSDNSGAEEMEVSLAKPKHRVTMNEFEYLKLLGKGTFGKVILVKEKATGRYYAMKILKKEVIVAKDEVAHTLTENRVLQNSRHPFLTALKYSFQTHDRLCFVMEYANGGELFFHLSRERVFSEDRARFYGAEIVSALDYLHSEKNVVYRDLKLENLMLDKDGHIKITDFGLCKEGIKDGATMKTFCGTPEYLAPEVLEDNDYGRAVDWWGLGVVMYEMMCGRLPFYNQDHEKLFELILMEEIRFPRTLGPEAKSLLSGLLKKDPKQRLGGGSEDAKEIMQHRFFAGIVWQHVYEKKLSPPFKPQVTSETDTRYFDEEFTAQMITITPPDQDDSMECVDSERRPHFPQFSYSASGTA

Structure (SMILES) | inhibition [6] | inhibition [9] | Activity [11] | Activity [17] | Activity [1] | growth at 10 µM [2] | growth at 10 µM [3] | growth at 10 µM [4] | growth at 10 µM [5] | growth at 10 µM [7] | Activity [8] | growth at 10 µM [10] | growth at 10 µM [12] | growth at 10 µM [13] | Activity [14] | Activity [15] | Activity [16] | Activity [18] | Activity [19]
CCCCC(O)Cn1nc(Nc2ccccc2)c(C(=O)OCC)c1N (stereo not drawn) | Active | 43% | > 70% | – | Active | 131% | 109% | 102% | 147% | 117% | inactive | 130% | 115% | 118% | 97.13% | – | – | – | –
CCOC(=O)c1c(Nc2ccccc2)nn(CC(O)c2ccccc2)c1N (stereo not drawn) | – | – | > 70% | 27.3% | – | 131% | 112% | 108% | 150% | 114% | inactive | 133% | 111% | 118% | 96.04% | – | <40% | <55% | –
CCCCC(O)Cn1nc(Nc2ccccc2C)c(C(=O)OCC)c1N (stereo not drawn) | Active | 43% | > 70% | – | Active | 127% | 110% | 99.9% | 118% | 121% | inactive | 127% | 99% | 115% | 114.61% | – | – | – | –
CCOC(=O)c1c(Nc2ccc(Cl)cc2)nn(CC(O)c2ccccc2)c1N (stereo not drawn) | – | 21% | > 70% | 27.3% | – | 127% | 119% | 102% | 125% | 131% | inactive | 116% | 77.6% | 114% | 113.67% | – | <40% | <55% | –
CCOC(=O)c1c(Nc2ccc(C)cc2)nn(CC(OC(=O)Nc2cccc(C(F)(F)F)c2)c2ccccc2)c1N (stereo not drawn) | inactive | – | > 70% | – | inactive | 124% | 124% | 122% | 129% | 129% | inactive | 98.4% | 81.4% | 131% | 126.2% | – | – | – | –
CCOC(=O)c1c(Nc2ccc(C)cc2)nn(CC(O)c2ccccc2)c1N (stereo not drawn) | – | 16.2% | > 70% | 27.3% | – | 117% | 112% | 102% | 119% | 128% | inactive | 118% | 80% | 117% | 105.89% | – | <40% | <55% | –
CCCCC(Cn1nc(Nc2ccc(Cl)cc2)c(C(=O)OCC)c1N)OC(=O)Nc1cccc(C(F)(F)F)c1 (stereo not drawn) | inactive | – | > 70% | – | inactive | 117% | 118% | 110% | 107% | 136% | inactive | 90.7% | 76.5% | 106% | 111.34% | – | – | – | –
CCCCC(Cn1nc(Nc2ccccc2)c(C(=O)OCC)c1N)OC(=O)Nc1cccc(C(F)(F)F)c1 (stereo not drawn) | inactive | – | > 70% | – | inactive | 126% | 112% | 107% | 141% | 123% | inactive | 98.1% | 85.8% | 113% | 96.63% | – | – | – | –
CCCCC(O)Cn1nc(Nc2cccc(C)c2)c(C(=O)OCC)c1N (stereo not drawn) | Active | 43% | > 70% | – | Active | 113% | 107% | 105% | 112% | 110% | inactive | 121% | 98.2% | 114% | 110.95% | – | 10.57% | – | –

Continued, in another order:

inhibition [6] | inhibition [9] | Activity [11] | Activity [17] | Structure (SMILES) | Activity [1] | growth at 10 µM [2] | growth at 10 µM [3] | growth at 10 µM [4] | growth at 10 µM [5] | growth at 10 µM [7] | Activity [8] | growth at 10 µM [10] | growth at 10 µM [12] | growth at 10 µM [13] | Activity [14] | Activity [15] | Activity [16] | Activity [18] | Activity [19]
inactive | – | > 70% | – | CCCCC(Cn1nc(Nc2ccccc2Cl)c(C(=O)OCC)c1N)OC(=O)Nc1cccc(C(F)(F)F)c1 (stereo not drawn) | – | 133% | 106% | 110% | 142% | 121% | inactive | 109% | 84.3% | 127% | 92.97% | <60% | – | – | –
inactive | 29.7% | > 70% | – | CCCCC(Cn1nc(Nc2ccccc2C)c(C(=O)OCC)c1N)OC(=O)Nc1cccc(C(F)(F)F)c1 (stereo not drawn) | inactive | 117% | 124% | 106% | 110% | 141% | inactive | 81.7% | 58.5% | 103% | 110.05% | – | – | – | –
Active | 43% | 50% | – | CCCCC(O)Cn1nc(Nc2ccc(C)cc2)c(C(=O)OCC)c1N (stereo not drawn) | Active | 134% | 105% | 99% | 155% | 122% | inactive | 120% | 109% | 112% | 106.98% | – | – | 14.34% | –
inactive | – | > 70% | – | CCCCC(O)Cn1nc(Nc2cccc(Cl)c2)c(C(=O)OCC)c1N (stereo not drawn) | Active | 140% | 108% | 108% | 137% | 106% | inactive | 136% | 117% | 128% | 92.22% | – | – | – | –
inactive | – | > 70% | – | CCCCC(Cn1nc(Nc2ccc(C)cc2)c(C(=O)OCC)c1N)OC(=O)Nc1cccc(C(F)(F)F)c1 (stereo not drawn) | inactive | 149% | 110% | 111% | 143% | 123% | inactive | 112% | 97% | 129% | 99.16% | – | – | – | –
– | 59.1% | – | 55.9% | CCCC(O)Cn1ncc(C(=O)OCC)c1NC(=O)Nc1cccc(C(F)(F)F)c1 (stereo not drawn) | – | – | – | – | – | – | inactive | – | – | – | – | – | 40.31% | 31.37% | 56.54%
– | 34.2% | > 70% | – | CCOC(=O)c1c(Nc2ccccc2)nn(CC(OC(=O)Nc2cccc(C(F)(F)F)c2)c2ccccc2)c1N (stereo not drawn) | – | 113% | 125% | 117% | 124% | 115% | inactive | 82.9% | 60.6% | 120% | 126.08% | <60% | – | – | –
